Experimental findings from the METLIN SMRT retention time set (Domingo-Almenara et al. 2019) are described below.

This series is described as follows: gradient 5% acetonitrile 3 min, to 50% in 2 min, to 85% in 15 min, held 3 min, 100 µL/min. The following applies: column: Zorbax Extend-C18 2.1 x 50 mm; eluents: water / acetonitrile, 0.1% formic acid. The method in brief: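 Data were gathered over 3 months by HPLC coupled to a quadrupole time-of-flight mass spectrometer, operated in positive and negative ionization mode. Mixtures of ~100 pure standards ran on a Zorbax Extend-C18 column (2.1 × 50 mm, 1.8 μm) at 100 μL/min, with water and acetonitrile each containing 0.1% formic acid and dead and dwell volumes of 40 μL and 900 μL. Retention time was read from adduct peaks picked by computer and checked manually.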
`Cn1cc(C2c3ccccc3C(=O)N2CC(N)=O)c2ccccc21` (stereo not given) yielded an RP-LC retention time of 696 s.

`Cc1cccn2cc(C(=O)NCc3ccc4c(c3)OCO4)nc12`: the RP-LC retention time is 679 s. The molecule `O=C(Nc1ccc2c(c1)OCCO2)C1(CCO)CCN(c2ncccn2)C1` (stereo not given) came in with an RP-LC retention time of 606 s. Then `Oc1c(Cl)cc(Cl)c2cccnc12`, with 1020 s. As to `CCn1ncc2ccc(C(=O)NC)cc21`, the RP-LC retention time turned out to be 608 s.

With `CCN1C(=O)C2(CCN(S(=O)(=O)c3ccc4c(c3)CCCC4)CC2)c2ccccc21`, the RP-LC retention time was determined as 1220 s. Next, `COc1nc2ccccc2nc1N1CCCC(C(=O)N2CCN(c3ccccc3)CC2)C1` (stereo not given): 1220 s; `CCOC(=O)c1c(C)n(-c2ccc(N(C)C)cc2)c2ccc(OCC(N)=O)cc12`: 938 s; `CCn1c(=O)sc2cc(S(=O)(=O)N3CCC(C(=O)NC(C)C)CC3)ccc21`: 749 s. In turn, `O=C(COc1cccc(Cl)c1)N1CCCN(C2CCN(CC3CC3)C2=O)CC1` (stereo not given) came in with an RP-LC retention time of 574 s.

In the case of `CCN1C(=O)NC(c2ccccc2C(F)(F)F)C2=C1CN(CCC(=O)NC1CC1)C2=O` (stereo not given), the RP-LC retention time was 605 s.

`O=C(Cn1nc2c(N3CCCCCC3)nccn2c1=O)NCc1ccc(F)cc1`: the RP-LC retention time was determined as 691 s. In turn, `Cc1ccc(S(=O)(=O)N2CCN(CCc3cn(C)c4ncccc34)CC2)cc1` yielded an RP-LC retention time of 632 s. `Cc1ccc(Sc2nccnc2N2CCCC(C(=O)N3CCN(c4cccc(C)c4)CC3)C2)cc1` (stereo not given) yielded an RP-LC retention time of 1310 s. Next, `CN1C(=O)CCc2cc(NC(=O)C3CCCCC3)ccc21`: 752 s; `Cn1cc(CN2CCN(C(=O)c3cc(-c4cccs4)[nH]n3)CC2)c2ccccc21`: 664 s; `Cc1ccc(-c2nc3ccccn3c2NC(=O)NCc2ccco2)cc1`: 629 s. With `CCCN1C(=O)c2cc(C(=O)NCc3cccc(C)c3)nn2CC1(C)C(=O)NC1CCCC1` (stereo not given), the RP-LC retention time stood at 866 s.

Consider `CC(C)n1cnc(S(=O)(=O)N2CCC(C(=O)N3CCN(c4cccc(Cl)c4)CC3)CC2)c1`, for which the RP-LC retention time came out at 876 s. Then `Cc1cccc(-c2ncccc2CNS(=O)(=O)c2ccccc2C)c1`, with 725 s; and `Cc1ccc2ncn(C3CCN(S(=O)(=O)c4cc(F)cc(F)c4)CC3)c(=O)c2c1`, with 932 s; and `Cc1ccc(CNC(=O)C2CCCN(c3nccnc3Sc3ccc(C)cc3)C2)cc1` (stereo not given), with 1090 s. The molecule `CCCS(=O)(=O)c1ccc(N2CCN(c3ccccc3OC)CC2)nn1` came in with an RP-LC retention time of 809 s. The molecule `CCCCN(C)C(=O)Cn1cncc(-c2nc(-c3ccccc3)cs2)c1=O` came in with an RP-LC retention time of 946 s. Next, `Cc1ccc(NC(=O)CCCn2cccc2)cc1F`: 874 s; `Cc1cc(C(=O)N2CCCC2Cc2noc(C3CCCC3)n2)n[nH]1` (stereo not given): 750 s; `CC(C)c1ccc(S(=O)(=O)c2cnc(N3CCC4(CC3)OCCO4)nc2N)cc1`: 1020 s.

The molecule `COc1ccc(Cl)cc1S(=O)(=O)N1CCC(C(=O)NCc2ccccn2)CC1` gave an RP-LC retention time of 594 s. `CCn1ccc(C(=O)N2CCN(c3nc4cccnc4n(C)c3=O)CC2)n1` came in with an RP-LC retention time of 721 s. Turning to `Cc1ccc(-c2cn3cccnc3n2)cc1NC(=O)CCC1CCCCC1`, the RP-LC retention time turned out to be 789 s. Molecule `O=C(CN1C(=O)C2CCCCN2c2ccc(C(=O)N3CCCC3)cc21)NC1CCCC1` (stereo not given) returned an RP-LC retention time of 732 s. Take `COC(=O)c1sccc1NC(=O)Cn1c(C)cc(C)c(-c2nc(-c3cccc(Cl)c3)no2)c1=O`: the RP-LC retention time was determined as 1170 s. Consider `CCn1nnc2ccc(-c3noc(-c4cccc(C#N)c4)n3)cc21`, for which the RP-LC retention time stood at 957 s.

For the molecule `O=C(Nc1nc2ccccc2s1)c1ccc([N+](=O)[O-])cc1Cl`, the RP-LC retention time was 877 s.

`Cn1c(N2CCCC(C(=O)N3CCN(c4ccc(Cl)cc4)CC3)C2)cc(=O)n(C)c1=O` (stereo not given) yielded an RP-LC retention time of 800 s. Consider `O=C(CN1CCN(Cc2ccc(F)cc2Cl)C1=O)N1CCN(c2ccc(F)cc2)CC1`, for which the RP-LC retention time amounted to 908 s.

`Cc1ccc(NC(=O)C2CCN(S(=O)(=O)c3cc(C(=O)N4CCCC4)cs3)CC2)c(C)c1` displayed an RP-LC retention time of 831 s.

The molecule `Cc1ccc(/C=C/S(=O)(=O)NCCn2nc(-c3cccnc3)ccc2=O)cc1` yielded an RP-LC retention time of 638 s. Molecule `Cc1nc(-c2cn(C(C)C)c3ncccc23)sc1C(=O)N1CCCC(C)C1` (stereo not given) showed an RP-LC retention time of 1050 s. The molecule `CCCS(=O)(=O)NCc1ccc2c(c1)CCN2C(=O)CC(C)C` displayed an RP-LC retention time of 862 s. `CC(=O)Nc1cc2c(cc1S(=O)(=O)c1ccc(C)cc1)n(C)c(=O)n2C` returned an RP-LC retention time of 683 s. The molecule `CN(c1ccccc1CNc1nc(Nc2ccc3c(c2)CC(=O)N3)ncc1C(F)(F)F)S(C)(=O)=O` came in with an RP-LC retention time of 713 s. For `CCN(Cc1ccccc1)c1ccc(-c2noc(CN3CCN(C)CC3)n2)cn1`, the RP-LC retention time was determined as 670 s.

On to `O=C(Cn1nc(C(=O)N2CCCC2)c2ccccc21)N1CCN(C2CCCCC2)CC1`, for which the RP-LC retention time worked out at 597 s. Next, `CCCCCOc1ccc(Nc2nc(C(=O)OCC)nc3ccccc23)cc1`: 789 s. Molecule `CCCNC(=O)C1CCCN(c2ccc(SCC(=O)Nc3ccccc3Br)nn2)C1` (stereo not given) came in with an RP-LC retention time of 670 s.

As for `NS(=O)(=O)c1ccc(CCNC(=O)c2cnc3sccn3c2=O)cc1`, the RP-LC retention time was determined as 568 s.

The molecule `COc1ccc(-c2nnc(-c3cc(S(=O)(=O)NC(C)C)ccc3Cl)o2)cc1` displayed an RP-LC retention time of 967 s. Then `CC(C)S(=O)(=O)N1CC(N(C)Cc2cccnc2)C1`, with 562 s; and `CCOC(=O)c1c(C)[nH]c(C(=O)N2CCCC(C(=O)NCCN3CCCCCC3)C2)c1C` (stereo not given), with 578 s; and `COc1ccc(-c2cc3nn(CC(=O)Nc4c(C)cccc4C)c(=O)n3c(C)n2)cc1`, with 909 s. With `COc1ccc(-n2c(=O)n(C)c(=O)c3cc(C(=O)NC4CCCCCC4)cnc32)cc1`, the RP-LC retention time stood at 924 s. The molecule `CC(=O)/C=C1\C(=O)N(C)c2ccccc21` came in with an RP-LC retention time of 858 s. Turning to `CC(C)NC(=O)c1cc(-c2ccncc2)n[nH]1`, the RP-LC retention time came to 553 s. The molecule `CCNC(=O)C1CCCN(c2nc3ncn(CC(=O)NCc4ccc(C)cc4)c(=O)c3s2)C1` (stereo not given) yielded an RP-LC retention time of 716 s.

`CCNC(=O)C1CCCN(c2nc3ncn(CC(=O)Nc4ccccc4)c(=O)c3s2)C1` (stereo not given): the RP-LC retention time was 644 s. `CCc1cc(=O)n(CC(=O)Nc2ccc(F)cc2C)c(N)n1` showed an RP-LC retention time of 599 s. `Cc1cn(C)c(CC(=O)NCCCN2CCOCC2)c1C(=O)O` had an RP-LC retention time of 571 s. In the case of `CCc1cc(=O)n(CC(=O)Nc2ccc(F)c(Cl)c2)c(N2CCOCC2)n1`, the RP-LC retention time turned out to be 828 s. Molecule `COc1cccc(C2OC(c3cccc(Cn4cccn4)c3)=NN2C(C)=O)c1OC(C)=O` (stereo not given) displayed an RP-LC retention time of 832 s. Take `COc1ccc(NC(=O)CSc2cc(N3CCN(c4ccccc4OC)CC3)ncn2)cc1`: the RP-LC retention time is 877 s. `Cc1cc(C)cc(N2CCC(NC(=O)Cc3ccc(F)cc3)C2=O)c1` (stereo not given) had an RP-LC retention time of 864 s.

Consider `CCc1ccc(-c2csc(NC(=O)Cc3csc(-c4ccccc4)n3)n2)cc1`, for which the RP-LC retention time came to 1240 s.

Regarding `COc1ccc(N2CC(c3noc(-c4ccc(F)cc4)n3)CC2=O)cc1` (stereo not given), the RP-LC retention time was determined as 926 s. Molecule `Cc1cc(NC(=O)C2CCCN(c3nccnc3Oc3ccccc3)C2)ccc1Br` (stereo not given) had an RP-LC retention time of 989 s. `CCN(CC)C(=O)NCCc1noc(COC)n1` yielded an RP-LC retention time of 626 s. Next, `COc1ccc(NC(=O)CCc2c(C)nn(-c3cc(N(C)C)ncn3)c2C)cc1OC`: 697 s. Next, `CC(C)c1ccc(CNC(=O)c2ccc3c(c2)N(C)C2CCCCN2C3=O)cc1` (stereo not given): 976 s. Then `COc1ccc(Cl)c2c(=O)c3c([nH]c12)CCN(CC(=O)NCc1ccc(C)cc1)C3`, with 630 s. For the molecule `COc1ccc(OC)c(CNC(=O)c2ccc3c(c2)NC(=O)C2CCCCN32)c1` (stereo not given), the RP-LC retention time was determined as 806 s. As to `O=C(Nc1ccc(N2CCOCC2)cc1)c1cn(-c2ccc(F)cc2)nn1`, the RP-LC retention time was 828 s. As for `CC1CCc2[nH]nc(C(=O)NC3CC3)c2C1` (stereo not given), the RP-LC retention time was 683 s. For `c1nc2c(c(NCc3ccc4c(c3)OCO4)n1)CCC2`, the RP-LC retention time was determined as 606 s. In the case of `Cc1sc2ncn3c(=O)n(CC(=O)N4CCc5ccccc5C4)nc3c2c1C`, the RP-LC retention time came out at 894 s.

Molecule `CCc1nc2c(=O)n(CC(=O)N3CCCCC3)nc(C)c2s1` gave an RP-LC retention time of 673 s. For the molecule `CCN(CC)CCNC(=O)c1cc(S(=O)(=O)N2CCCCC2)ccc1Cl`, the RP-LC retention time is 637 s.

With `O=C(CN1CCCCC1c1nc(-c2ccc(F)cc2)no1)NCc1cccs1` (stereo not given), the RP-LC retention time worked out at 1020 s. `Cc1ccc(-c2noc(Cn3c(=O)n(Cc4ccccc4)c(=O)c4sccc43)n2)cc1C` returned an RP-LC retention time of 1160 s.

Molecule `COC(=O)c1c(-c2ccccc2)csc1NC(=O)c1ccnn1C` returned an RP-LC retention time of 1110 s. On to `CC1CCc2nn(CC(=O)Nc3c(F)c(F)c(F)c(F)c3F)cc2C1` (stereo not given), for which the RP-LC retention time is 934 s.
